For experiment [1], the target named is T1, Mitogen-activated protein kinase 14 (Homo sapiens, UniProt Q16539). The experiment can be described thus: Inhibition of p38alpha assessed as residual activity at 10 uM relative to control.
Experiment [2] concerns the target T1, Mitogen-activated protein kinase 14. Nature of the experiment: Inhibition of p38alpha.
Experiment [3] concerns the target T2, Mitogen-activated protein kinase 13 (Homo sapiens) (UniProt O15264).
T2 sequence (whole entry): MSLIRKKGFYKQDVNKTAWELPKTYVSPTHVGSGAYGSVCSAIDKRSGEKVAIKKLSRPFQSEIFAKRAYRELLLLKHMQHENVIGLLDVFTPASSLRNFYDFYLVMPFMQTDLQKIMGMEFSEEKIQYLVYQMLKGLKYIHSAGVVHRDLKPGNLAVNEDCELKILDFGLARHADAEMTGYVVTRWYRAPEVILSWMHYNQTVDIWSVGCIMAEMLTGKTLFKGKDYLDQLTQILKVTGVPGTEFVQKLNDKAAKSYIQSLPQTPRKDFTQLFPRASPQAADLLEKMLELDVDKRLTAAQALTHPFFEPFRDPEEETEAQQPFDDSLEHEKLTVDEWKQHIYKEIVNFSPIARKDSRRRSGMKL
Nature of the experiment: Residual activity of p38delta at 10 uM relative to control.

Experiment [4] addresses Mitogen-activated protein kinase 10 (Homo sapiens) (UniProt P53779). Nature of the experiment: Residual activity of JNK3 at 10 uM relative to control.
Experiment [5] concerns the target Mitogen-activated protein kinase 3 (Homo sapiens) (UniProt P27361). The experiment can be described thus: Inhibition of ERK1 assessed as residual activity at 10 uM relative to control.
Experiment [6] deals with T3, Mitogen-activated protein kinase 12 (Homo sapiens) (UniProt P53778).
T3 sequence (whole entry): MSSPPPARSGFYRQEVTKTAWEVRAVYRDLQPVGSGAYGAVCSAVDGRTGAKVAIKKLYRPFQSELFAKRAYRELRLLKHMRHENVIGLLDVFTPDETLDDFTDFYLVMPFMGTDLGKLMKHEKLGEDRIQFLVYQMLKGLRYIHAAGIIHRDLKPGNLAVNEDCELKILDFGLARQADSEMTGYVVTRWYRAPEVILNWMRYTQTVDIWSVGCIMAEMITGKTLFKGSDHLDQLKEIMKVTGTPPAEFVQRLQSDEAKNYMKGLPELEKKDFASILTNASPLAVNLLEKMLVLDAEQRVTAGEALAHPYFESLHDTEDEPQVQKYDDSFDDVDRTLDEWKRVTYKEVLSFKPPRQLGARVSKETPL
Nature of the experiment: Residual activity of p38-gamma at 10 uM relative to control. It is filed as functional.

In experiment [7] the target is T4, Mitogen-activated protein kinase 15 (Homo sapiens) (UniProt Q8TD08).
T4 sequence (whole entry): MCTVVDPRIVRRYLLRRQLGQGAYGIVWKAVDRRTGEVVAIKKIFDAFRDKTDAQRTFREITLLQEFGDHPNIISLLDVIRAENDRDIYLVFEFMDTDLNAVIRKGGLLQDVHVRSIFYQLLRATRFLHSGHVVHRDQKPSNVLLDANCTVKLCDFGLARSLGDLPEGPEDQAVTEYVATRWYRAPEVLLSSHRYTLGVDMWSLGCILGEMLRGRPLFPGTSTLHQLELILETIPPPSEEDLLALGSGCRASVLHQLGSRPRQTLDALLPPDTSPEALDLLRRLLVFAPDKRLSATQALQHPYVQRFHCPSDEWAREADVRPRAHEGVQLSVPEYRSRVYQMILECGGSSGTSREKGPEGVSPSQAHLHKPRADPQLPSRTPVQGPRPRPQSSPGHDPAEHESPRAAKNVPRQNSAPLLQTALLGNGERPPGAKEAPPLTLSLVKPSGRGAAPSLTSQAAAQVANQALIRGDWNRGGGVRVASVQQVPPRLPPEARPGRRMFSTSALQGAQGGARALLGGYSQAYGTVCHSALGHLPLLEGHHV
The experiment can be described thus: Residual activity of ERK8 at 10 uM relative to control.

The target of experiment [8] is Mitogen-activated protein kinase 8 (Homo sapiens) (UniProt P45983). The experiment can be described thus: Residual activity of JNK1 at 10 uM relative to control.
Chain of Mitogen-activated protein kinase 8 (Homo sapiens) (P45983 whole entry): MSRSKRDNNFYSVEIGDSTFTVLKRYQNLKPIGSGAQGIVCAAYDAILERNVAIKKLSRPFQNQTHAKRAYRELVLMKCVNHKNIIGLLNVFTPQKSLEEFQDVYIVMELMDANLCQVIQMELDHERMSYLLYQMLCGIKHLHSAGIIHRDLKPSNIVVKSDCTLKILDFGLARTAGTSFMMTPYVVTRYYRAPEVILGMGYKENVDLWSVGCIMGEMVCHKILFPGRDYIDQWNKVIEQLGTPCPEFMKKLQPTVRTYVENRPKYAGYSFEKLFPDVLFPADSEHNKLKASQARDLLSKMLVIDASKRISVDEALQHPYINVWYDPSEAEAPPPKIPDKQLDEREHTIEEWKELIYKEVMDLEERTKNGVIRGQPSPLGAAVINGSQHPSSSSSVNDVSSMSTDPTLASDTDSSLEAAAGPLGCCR
Experiment [9] has as its target Mitogen-activated protein kinase 11 (Homo sapiens) (UniProt Q15759). Nature of the experiment: Residual activity of p38beta at 10 uM relative to control.
Experiment [10] has as its target Mitogen-activated protein kinase 1 (Homo sapiens) (UniProt P28482). Nature of the experiment: Residual activity of ERK2 at 10 uM relative to control.
For experiment [11], the target named is T5, Mitogen-activated protein kinase 9 (Homo sapiens, UniProt P45984). The experiment can be described thus: Residual activity of JNK2 at 10 uM relative to control.
Target sequence in this assay (P45984 whole entry, looked up): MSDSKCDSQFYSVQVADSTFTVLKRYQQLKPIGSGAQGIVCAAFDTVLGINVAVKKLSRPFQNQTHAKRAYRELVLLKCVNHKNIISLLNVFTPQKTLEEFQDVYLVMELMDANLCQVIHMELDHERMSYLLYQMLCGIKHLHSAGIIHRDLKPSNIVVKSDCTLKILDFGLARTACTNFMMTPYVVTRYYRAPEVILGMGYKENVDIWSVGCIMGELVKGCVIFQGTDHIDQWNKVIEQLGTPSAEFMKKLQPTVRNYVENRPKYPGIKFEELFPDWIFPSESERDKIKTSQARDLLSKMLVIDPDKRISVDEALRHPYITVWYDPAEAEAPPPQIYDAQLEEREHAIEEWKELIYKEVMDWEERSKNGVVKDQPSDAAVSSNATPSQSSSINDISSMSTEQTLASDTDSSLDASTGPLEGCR
Experiment [12] addresses Tyrosine-protein kinase Lck (Homo sapiens) (UniProt P06239). Nature of the experiment: Inhibition of Lck; values are per cent of control.
Experiment [13] in a line: Inhibition of PKA; values are per cent of control.
The target in experiment [14] is T5, Mitogen-activated protein kinase 9. Nature of the experiment: Inhibition of JNK2.
Target sequence in this assay (P45984 whole entry): as the sequence (P45984 whole entry, looked up) above
The target of experiment [15] is T6, Serine/threonine-protein kinase D1 (Homo sapiens) (UniProt Q15139).
T6 sequence (whole entry): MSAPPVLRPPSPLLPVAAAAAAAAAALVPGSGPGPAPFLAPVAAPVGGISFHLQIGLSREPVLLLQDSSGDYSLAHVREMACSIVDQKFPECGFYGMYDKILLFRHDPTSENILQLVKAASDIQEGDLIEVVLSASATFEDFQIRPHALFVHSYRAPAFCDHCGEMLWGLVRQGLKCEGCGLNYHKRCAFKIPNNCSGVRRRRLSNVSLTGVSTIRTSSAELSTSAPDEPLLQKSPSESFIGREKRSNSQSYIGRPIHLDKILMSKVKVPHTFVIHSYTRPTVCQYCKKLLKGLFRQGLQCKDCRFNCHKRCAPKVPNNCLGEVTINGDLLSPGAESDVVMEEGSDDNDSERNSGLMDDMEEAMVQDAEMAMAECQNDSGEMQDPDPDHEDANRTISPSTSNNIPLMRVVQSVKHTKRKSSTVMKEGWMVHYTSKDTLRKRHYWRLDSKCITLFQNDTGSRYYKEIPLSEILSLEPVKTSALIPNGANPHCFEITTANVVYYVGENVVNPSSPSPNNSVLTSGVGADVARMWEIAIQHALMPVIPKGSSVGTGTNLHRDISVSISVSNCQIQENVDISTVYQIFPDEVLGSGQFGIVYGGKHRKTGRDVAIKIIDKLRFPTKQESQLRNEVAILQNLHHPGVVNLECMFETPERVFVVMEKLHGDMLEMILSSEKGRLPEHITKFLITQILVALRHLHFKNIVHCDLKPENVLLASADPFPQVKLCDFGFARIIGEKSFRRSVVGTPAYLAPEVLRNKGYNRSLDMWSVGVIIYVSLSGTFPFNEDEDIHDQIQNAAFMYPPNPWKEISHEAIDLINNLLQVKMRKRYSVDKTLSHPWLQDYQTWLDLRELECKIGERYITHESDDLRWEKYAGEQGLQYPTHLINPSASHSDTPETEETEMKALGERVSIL
Nature of the experiment: Inhibition of PKD1; values are per cent of control.

The target in experiment [16] is Aurora kinase B (Homo sapiens) (UniProt Q96GD4). The experiment can be described thus: Inhibition of Aurora B; values are per cent of control.
Chain of Aurora kinase B (Homo sapiens) (Q96GD4 whole entry): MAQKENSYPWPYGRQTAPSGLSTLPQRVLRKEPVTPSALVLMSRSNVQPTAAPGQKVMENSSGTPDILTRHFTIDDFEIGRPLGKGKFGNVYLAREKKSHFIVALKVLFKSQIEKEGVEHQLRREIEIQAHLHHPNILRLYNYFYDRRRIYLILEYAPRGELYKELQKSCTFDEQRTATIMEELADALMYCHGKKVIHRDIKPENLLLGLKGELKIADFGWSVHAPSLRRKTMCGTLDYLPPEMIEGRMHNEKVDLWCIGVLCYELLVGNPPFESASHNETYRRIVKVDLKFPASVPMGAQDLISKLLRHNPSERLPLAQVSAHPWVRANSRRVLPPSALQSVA
Experiment [17] is described as follows: Inhibition of Aurora C; values are per cent of control.

This note sets out measurements from ChEMBL document CHEMBL1141471, “Implications for selectivity of 3,4-diarylquinolinones as p38alphaMAP kinase inhibitors” (Bioorg Med Chem Lett, 2008).

Chain of Mitogen-activated protein kinase 10 (Homo sapiens) (P53779 whole entry): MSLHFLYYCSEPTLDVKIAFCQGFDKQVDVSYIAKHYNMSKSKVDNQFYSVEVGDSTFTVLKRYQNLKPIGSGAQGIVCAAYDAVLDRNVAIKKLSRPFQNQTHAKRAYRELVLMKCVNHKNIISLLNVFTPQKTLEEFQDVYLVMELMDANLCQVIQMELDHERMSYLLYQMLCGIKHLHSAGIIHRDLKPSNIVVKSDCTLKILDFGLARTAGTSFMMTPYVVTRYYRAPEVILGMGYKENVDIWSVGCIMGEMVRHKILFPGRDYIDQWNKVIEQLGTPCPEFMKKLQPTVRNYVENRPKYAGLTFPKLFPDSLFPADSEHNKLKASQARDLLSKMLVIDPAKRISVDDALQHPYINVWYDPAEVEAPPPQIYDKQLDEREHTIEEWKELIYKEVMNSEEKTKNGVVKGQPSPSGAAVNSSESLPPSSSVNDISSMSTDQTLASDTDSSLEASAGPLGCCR
T1 sequence (Q16539 whole entry): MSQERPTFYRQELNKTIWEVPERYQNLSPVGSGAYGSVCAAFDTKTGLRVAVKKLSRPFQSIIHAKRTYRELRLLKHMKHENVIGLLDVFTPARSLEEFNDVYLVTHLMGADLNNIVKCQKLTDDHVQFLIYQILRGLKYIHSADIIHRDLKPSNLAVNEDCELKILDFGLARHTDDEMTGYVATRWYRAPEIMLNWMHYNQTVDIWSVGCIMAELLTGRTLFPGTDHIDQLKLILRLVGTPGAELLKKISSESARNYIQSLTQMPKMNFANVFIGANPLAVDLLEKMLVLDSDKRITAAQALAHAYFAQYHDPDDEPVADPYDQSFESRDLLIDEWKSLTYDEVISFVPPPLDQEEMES
Chain of Mitogen-activated protein kinase 11 (Homo sapiens) (Q15759 whole entry): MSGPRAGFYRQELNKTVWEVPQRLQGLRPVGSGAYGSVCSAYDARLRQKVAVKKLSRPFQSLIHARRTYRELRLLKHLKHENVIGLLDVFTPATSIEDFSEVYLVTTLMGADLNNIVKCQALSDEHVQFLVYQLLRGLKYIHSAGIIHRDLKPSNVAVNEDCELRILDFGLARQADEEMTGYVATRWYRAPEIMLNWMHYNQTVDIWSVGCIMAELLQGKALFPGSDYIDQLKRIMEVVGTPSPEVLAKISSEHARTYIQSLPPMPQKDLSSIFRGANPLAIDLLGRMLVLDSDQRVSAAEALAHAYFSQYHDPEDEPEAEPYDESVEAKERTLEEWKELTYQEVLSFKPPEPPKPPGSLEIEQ
Chain of Mitogen-activated protein kinase 1 (Homo sapiens) (P28482 whole entry): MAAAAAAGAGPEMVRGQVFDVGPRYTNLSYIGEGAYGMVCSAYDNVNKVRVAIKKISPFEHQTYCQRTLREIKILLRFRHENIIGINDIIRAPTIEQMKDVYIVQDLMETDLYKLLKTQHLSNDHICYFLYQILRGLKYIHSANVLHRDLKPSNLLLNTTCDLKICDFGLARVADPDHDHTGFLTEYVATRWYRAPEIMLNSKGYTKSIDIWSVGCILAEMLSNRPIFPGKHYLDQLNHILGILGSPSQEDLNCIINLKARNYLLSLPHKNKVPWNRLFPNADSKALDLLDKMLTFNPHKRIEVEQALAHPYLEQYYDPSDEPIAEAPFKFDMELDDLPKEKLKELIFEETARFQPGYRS
Chain of Mitogen-activated protein kinase 3 (Homo sapiens) (P27361 whole entry): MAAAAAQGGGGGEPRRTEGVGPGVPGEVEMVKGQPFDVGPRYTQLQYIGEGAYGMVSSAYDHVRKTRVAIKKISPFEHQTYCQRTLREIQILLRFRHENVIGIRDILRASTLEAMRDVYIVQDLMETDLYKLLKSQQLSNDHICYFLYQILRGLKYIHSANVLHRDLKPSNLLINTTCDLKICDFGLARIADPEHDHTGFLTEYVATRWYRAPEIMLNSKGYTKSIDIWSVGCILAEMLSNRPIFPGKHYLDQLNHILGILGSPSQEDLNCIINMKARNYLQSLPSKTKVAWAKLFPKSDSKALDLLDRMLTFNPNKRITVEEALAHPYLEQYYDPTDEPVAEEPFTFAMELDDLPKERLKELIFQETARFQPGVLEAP
Chain of Tyrosine-protein kinase Lck (Homo sapiens) (P06239 2-509 limits assumed): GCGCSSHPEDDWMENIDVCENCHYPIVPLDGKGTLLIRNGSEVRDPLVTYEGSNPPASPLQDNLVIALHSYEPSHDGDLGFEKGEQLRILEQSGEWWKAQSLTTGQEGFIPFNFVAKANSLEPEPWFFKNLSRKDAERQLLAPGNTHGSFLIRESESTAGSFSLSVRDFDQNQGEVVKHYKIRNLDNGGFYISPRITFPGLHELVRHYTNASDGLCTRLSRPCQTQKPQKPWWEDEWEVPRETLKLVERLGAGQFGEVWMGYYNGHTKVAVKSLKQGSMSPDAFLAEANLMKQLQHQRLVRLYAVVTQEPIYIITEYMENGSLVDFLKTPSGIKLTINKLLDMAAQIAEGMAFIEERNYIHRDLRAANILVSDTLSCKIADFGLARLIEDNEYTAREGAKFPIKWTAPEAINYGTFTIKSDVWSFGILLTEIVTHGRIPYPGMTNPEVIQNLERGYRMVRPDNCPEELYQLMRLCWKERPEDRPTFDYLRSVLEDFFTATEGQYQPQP

For `CC#COc1nc2ccccc2c(-c2ccncc2)c1-c1ccc(F)cc1`, in experiment [1], the Activity came out at 79%.
The term IC50 denotes the point on the concentration scale where inhibition reaches its midpoint. Read a high IC50 as lower potency. Consider `Cc1ccccc1-c1c(-c2ccncc2)c2ccccc2[nH]c1=O`, for which the concentration for half-maximal inhibition (IC50) in experiment [2] amounted to 9.7 µM.
Turning to `O=c1c(-c2ccc(F)cc2)c(-c2ccncc2)c2ccccc2n1CCc1ccccc1`, in experiment [2], the IC50 worked out at 8.2 µM.
Regarding `O=c1[nH]c2ccccc2c(-c2ccncc2)c1-c1ccc(F)cc1`, the Activity was 91% in experiment [3]; 106% in experiment [4]; 84% in [5]; 89% in experiment [6]; 73% in [7]; 53% in [1]. Besides, the Activity in experiment [8] was 86%; in experiment [9] it was 97%; in [10] it was 93%; in experiment [11] it was 89%.
One may read the residual activity as the signal under treatment as a percentage of the control signal. High values mean a small loss of activity, low ones a large loss of activity. In the case of `CC(C)c1onc(-c2ccc(F)cc2)c1-c1ccncc1`, the residual activity was 42% in experiment [12], 28% in [13] and 60% in [15]. In addition, the Activity in [3] stood at 86%; in [4] it was 28%; in experiment [5] it was 92%; in experiment [6], 84%; in experiment [7], 84%; in experiment [1] it was 20%. Further, the Activity was determined as 67% in [8], 95% in experiment [9], 86% in [10] and 13% in [11]. Besides, the IC50 in [14] was determined as 1.28 µM.
Take `O=c1cc(-c2ccncc2)c2ccccc2[nH]1`: the Activity in experiment [1] worked out at 78%.
In the case of `O=c1[nH]c2ccccc2c(-c2ccccc2)c1-c1ccccc1`, the Activity in experiment [1] is 64%.
Take `CCC(O)C(O)n1c(=O)c(-c2ccc(F)cc2)c(-c2ccncc2)c2ccccc21` (stereo not drawn): in experiment [1], the Activity came out at 57%.
`CCOc1nc2ccccc2c(-c2ccncc2)c1-c1ccc(F)cc1`: the Activity in experiment [1] was 66%.
For the compound `CC#Cn1c(=O)c(-c2ccc(F)cc2)c(-c2ccncc2)c2ccccc21`, half-maximal inhibition in experiment [2] (IC50) required 3.1 µM.
For `CCC(O)C(O)n1c(=O)c(-c2ccccc2C)c(-c2ccncc2)c2ccccc21` (stereo not drawn), in [1], the Activity was determined as 80%.
Regarding `CC1(C)OCC(Cn2c(=O)c(-c3ccc(F)cc3)c(-c3ccncc3)c3ccccc32)O1` (stereo not drawn), the Activity in experiment [1] worked out at 55%.
Regarding `CCn1c(=O)c(-c2ccc(F)cc2)c(-c2ccncc2)c2ccccc21`, the IC50 in experiment [2] came out at 2.2 µM.
For the compound `Cn1c(=O)c(-c2ccc(F)cc2)c(-c2ccncc2)c2ccccc21`, the IC50 in experiment [2] was 5.2 µM.
With `CC(C)c1noc(-c2ccc(F)cc2)c1-c1ccncc1`, the residual activity is 22% in [16] and 35% in experiment [17]. The Activity in [3] stood at 95%; in [4], 63%; in experiment [5], 87%; in experiment [6], 94%; in [7] it was 88%; in [1], 50%. Moreover, the Activity amounted to 98% in experiment [8], 98% in experiment [9], 88% in experiment [10] and 59% in experiment [11].
